Reference: patent US5395824A, “Dipeptide derivative and prophylactic and therapeutic agent for bone diseases containing the same” (Suntory Limited, priority 1991, dated 1995)

Key:
[1] = system: PTHrp(1-34)-Induced Hypercalcemia in Rats; experiment: Effect on PTHrp(1-34)-induced hypercalcemia in rats (i.p.); format: in vivo; conditions: male Wistar rats, 40 mg/kg i.p.; PTHrp(1-34) 5 nmole/kg i.v. two hours later; blood sample 1 hour after PTHrp; n = 5; PTHrp-only control 10.79 ± 0.13
Description: Some of the compounds shown in Table 1 were intraperitoneally administered to 5-week-old male Wistar rats each weighing 90 to 110 g (5 animals per group) at a dose of 40 mg/kg body weight. Two hours later, 5 nmole/kg of PTHrp(1-34) was intravenously injected. One hour after the administration of PTHrp(1-34), a blood sample was collected from each animal, and the blood calcium concentration was determined according to the same method as in Test Example 1.

[2] = system: PTHrp(1-34)-Induced Hypercalcemia in Rats; experiment: Effect on PTHrp(1-34)-induced hypercalcemia in rats (p.o.); format: in vivo; conditions: male Wistar rats, 40 mg/kg p.o.; PTHrp(1-34) 5 nmole/kg i.v. four hours later; blood sample 1 hour after PTHrp; n = 5; PTHrp-only control 10.84 ± 0.11
Description: Some of the compounds shown in Table 1 were orally administered to 5-week-old male Wistar rats weighing from […] to 110 g (5 animals per group) at a dose of 40 mg/kg body weight. Four hours later, 5 nmole/kg of PTHrp(1-34) was intravenously injected into the animals. One hour after the administration of PTHrp(1-34)sequence ID No. 1, a blood sample was collected from each rat, and the blood calcium concentration was determined by the octocresolphthalein complexone method.

Compound: CCCCC(NC(=O)[C@H](CC(C)C)NC(=O)OCc1ccccc1)C(=O)C(=O)OCC (stereo partly drawn) [Example 1, N-Benzyloxycarbonyl-L-leueine-(1-ethoxalyl)pentylamide]
- Ca Conc. ± S.E. (average blood calcium concentration) [1]: 10.33 ± 0.12 mg/dL

Compound: CCCCC(NC(=O)[C@H](CC(C)C)NC(=O)OCc1ccccc1)C(OC)OC (stereo partly drawn) [Example 7, N-Benzyloxycarbonyl-L-leucine-(1-dimethoxymethyl)pentylamide]
- Ca Conc. ± S.E. (average blood calcium concentration) [2]: 10.36 ± 0.11 mg/dL
- Ca Conc. ± S.E. (average blood calcium concentration) [1]: 10.29 ± 0.14 mg/dL

Compound: CCCCC(NC(=O)[C@H](CC(C)C)NC(=O)OCc1ccccc1)C1OCCO1 (stereo partly shown) [Example 9]
- Ca Conc. ± S.E. (average blood calcium concentration) [2]: 10.41 ± 0.08 mg/dL

Compound: CCCCC(NC(=O)[C@H](CC(C)C)NC(=O)OCc1ccccc1)C(OC(C)=O)OC(C)=O (stereo partly drawn) [Example 12, N-Benzyloxycarbonyl-L-leucine-(1-diacetoxymethyl)pentylamide]
- Ca Conc. ± S.E. (average blood calcium concentration) [1]: 10.27 ± 0.08 mg/dL

Compound: CCCCC(NC(=O)[C@H](CC(C)C)NC(=O)OCc1ccccc1)C1SCCS1 (stereo partly drawn) [Example 13, N-Benzyloxycarbonyl-L-leucine-[1-(1,3-dithiolan-2-yl)]pentylamide]
- Ca Conc. ± S.E. (average blood calcium concentration) [1]: 10.23 ± 0.05 mg/dL

Compound: CCCCC(NC(=O)[C@H](CC(C)C)NC(=O)OCc1ccccc1)C1NCCS1 (stereo partly drawn) [Example 15, N-Benzyloxycarbonyl-L-leucine-[1-(thiazolidine-2-yl)]pentylamide]
- Ca Conc. ± S.E. (average blood calcium concentration) [2]: 9.98 ± 0.13 mg/dL
- Ca Conc. ± S.E. (average blood calcium concentration) [1]: 10.13 ± 0.21 mg/dL

Compound: CCCCC(NC(=O)[C@H](CC(C)C)NC(C)=O)C(OC)OC (stereo partly drawn) [Example 16, N-Acetyl-L-leucine-(1-dimethoxymethyl)pentylamide]
- Ca Conc. ± S.E. (average blood calcium concentration) [2]: 9.91 ± 0.13 mg/dL
- Ca Conc. ± S.E. (average blood calcium concentration) [1]: 9.95 ± 0.14 mg/dL

Compound: CCCCC(NC(=O)[C@H](CC(C)C)NC(C)=O)C1OCCO1 (stereo partly drawn) [Example 17, N-Acetyl-L-leucine-[1-(1,3-dioxolan-2-yl)]pentylamide]
- Ca Conc. ± S.E. (average blood calcium concentration) [2]: 9.97 ± 0.17 mg/dL
- Ca Conc. ± S.E. (average blood calcium concentration) [1]: 10.16 ± 0.05 mg/dL

Compound: CCCCC(NC(=O)[C@H](CC(C)C)NC(C)=O)C1NCCS1 (stereo partly drawn) [Example 21, N-Acetyl-L-leucine-[1-(thiazolidine-2-yl)]pentylamide]
- Ca Conc. ± S.E. (average blood calcium concentration) [2]: 9.98 ± 0.10 mg/dL
- Ca Conc. ± S.E. (average blood calcium concentration) [1]: 9.96 ± 0.07 mg/dL

Compound: CCCCC(NC(=O)[C@H](CC(C)C)NC(C)=O)C(OCC)OCC (stereo partly drawn) [Example 22, N-Acetyl-L-leucine-(1-diethoxymethyl)pentylamide]
- Ca Conc. ± S.E. (average blood calcium concentration) [2]: 10.05 ± 0.13 mg/dL
- Ca Conc. ± S.E. (average blood calcium concentration) [1]: 9.67 ± 0.18 mg/dL

Compound: CCCCC(NC(=O)[C@H](CC(C)C)NC(=O)C(C)C)C(OC)OC (stereo partly drawn) [Example 23, N-Isobutyryl-L-leucine-(1-dimethoxymethyl)pentylamide]
- Ca Conc. ± S.E. (average blood calcium concentration) [2]: 9.83 ± 0.13 mg/dL

Compound: CCCCC(NC(=O)[C@H](CC(C)C)NC(=O)CCl)C(OC)OC (stereo partly drawn) [Example 24, N-Chloroacetyl-L-leucine-(1-dimethoxymethyl)pentylamide]
- Ca Conc. ± S.E. (average blood calcium concentration) [2]: 10.12 ± 0.09 mg/dL

Compound: CCCCC(NC(=O)[C@H](CC(C)C)NC(=O)CC)C(OC)OC (stereo partly drawn) [Example 25, N-Propionyl-L-leucine-(1-dimethoxymethyl)pentylamide]
- Ca Conc. ± S.E. (average blood calcium concentration) [2]: 9.88 ± 0.09 mg/dL

Compound: CCCCC(NC(=O)[C@H](CC(C)C)NC(=O)CCC)C(OC)OC (stereo partly drawn) [Example 26, N-Butyryl-L-leucine-(1-dimethoxymethyl)pentylamide]
- Ca Conc. ± S.E. (average blood calcium concentration) [2]: 9.85 ± 0.08 mg/dL

Compound: CCCCC(NC(=O)[C@H](CC(C)C)NC(=O)C(F)(F)F)C(OC)OC (stereo partly drawn) [Example 27, N-Trifluoroacetyl-L-leucine-(1-dimethoxymethyl)pentylamide]
- Ca Conc. ± S.E. (average blood calcium concentration) [2]: 9.91 ± 0.13 mg/dL

Compound: CC(C)CC(C=O)NC(=O)[C@H](CC(C)C)NC(=O)OCc1ccccc1 (stereo partly drawn) [Example 33, N-Benzyloxycarbonyl-L-leucine-(1-formyl-3-methyl)butylamide]
- Ca Conc. ± S.E. (average blood calcium concentration) [2]: 10.26 ± 0.13 mg/dL
